The values below come from US12605330B2, “Screening method for offensive odor-suppressing material” (Takasago International Corporation, priority 2019, dated 2026).

Test [1] has as its system cells not engineered to express the olfactory receptors. The test is described as follows: Mock test, luciferase reporter gene assay. The format is cell-based, human. On the procedure:
(§1) Each human olfactory receptor gene expression vector (0.05 μg), RTP1S vector (0.01 μg), firefly luciferase vector pGL4.29 containing a cAMP response element promoter (Promega, 0.01 μg) and Renilla luciferase vector pGL4.74 containing a thymidine kinase promoter (Promega, 0.005 μg) were dissolved in 10 μL of Opti-MEMI (gibco) to give a gene solution (for one well). HEK293T cells were seeded in 100 μL volumes into 96-well plates (Biocoat, Corning) at a cell density reaching confluence after 24 hours, and the gene solutions were added to the respective wells to cause gene transfer into the cells by lipofection techniques in accordance with the usage of Lipofectamine 3000, followed by culture at 37° C. under a 5% carbon dioxide atmosphere for 24 hours.
(§2) After removal of the culture solutions, an odorous substance serving as an analyte, which had been prepared at a given concentration with CD293 (gibco) medium (supplemented with […] L-glutamine), was added in 50 μL volumes to stimulate the cells for 3 hours, followed by luciferase activity measurement in accordance with the usage of a Dual-Luciferase Reporter Assay System (Promega). The response intensity of each olfactory receptor polypeptide was expressed as a fold increase value, which was determined by dividing the luciferase activity generated upon stimulation with the odorous substance by the luciferase activity generated in a test system not containing the odorous substance.
(§3) The cells engineered to express human olfactory receptors OR2C1 and OR4Q3 were used to measure the response of these receptors to various concentrations of 1-octen-3-one by the luciferase reporter gene assay.

The target of test [2] is T1, human olfactory receptor OR4Q3 (Homo sapiens, UniProt Q8NH05).
T1 construct: N-terminal 20 amino acid residues of bovine rhodopsin (Rho tag); expressed in transfected cells; host or cells: HEK293T cells, pME18S expression vector, co-transfected with RTP1S vector and luciferase reporters
T1 sequence (Q8NH05 1-313): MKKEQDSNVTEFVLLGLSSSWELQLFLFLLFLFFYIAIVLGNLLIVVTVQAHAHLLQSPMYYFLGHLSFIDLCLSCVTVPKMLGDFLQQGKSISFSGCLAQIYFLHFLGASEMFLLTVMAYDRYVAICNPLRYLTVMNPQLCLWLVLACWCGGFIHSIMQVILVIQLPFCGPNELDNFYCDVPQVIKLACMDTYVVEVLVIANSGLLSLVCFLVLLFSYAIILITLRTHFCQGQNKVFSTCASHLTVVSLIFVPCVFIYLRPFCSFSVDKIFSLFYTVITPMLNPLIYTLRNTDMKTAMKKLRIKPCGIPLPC
The test is described as follows: Luciferase reporter gene assay, response of olfactory receptor OR4Q3 to odorous substance. The format is cell-based. Conditions: HEK293T cells expressing OR4Q3, various concentrations, 3 hours stimulation; FIGS. 2, 4, 5, 6. On the procedure:
Human olfactory receptor genes were obtained by PCR cloning with Human Genomic DNA: Female (Promega) on the basis of their sequence information registered in GenBank. Into pME18S vectors, the N-terminal 20 amino acid residues of bovine rhodopsin were integrated and the resulting human olfactory receptor genes were integrated respectively downstream thereof to obtain human olfactory receptor gene expression vectors.
as §1, §2, §3

Test [3] has as its target T2, human olfactory receptor OR2C1 (Homo sapiens, UniProt O95371).
T2 construct: N-terminal 20 amino acid residues of bovine rhodopsin (Rho tag); expressed in transfected cells; host or cells: HEK293T cells, pME18S expression vector, co-transfected with RTP1S vector and luciferase reporters
T2 sequence (O95371 1-312): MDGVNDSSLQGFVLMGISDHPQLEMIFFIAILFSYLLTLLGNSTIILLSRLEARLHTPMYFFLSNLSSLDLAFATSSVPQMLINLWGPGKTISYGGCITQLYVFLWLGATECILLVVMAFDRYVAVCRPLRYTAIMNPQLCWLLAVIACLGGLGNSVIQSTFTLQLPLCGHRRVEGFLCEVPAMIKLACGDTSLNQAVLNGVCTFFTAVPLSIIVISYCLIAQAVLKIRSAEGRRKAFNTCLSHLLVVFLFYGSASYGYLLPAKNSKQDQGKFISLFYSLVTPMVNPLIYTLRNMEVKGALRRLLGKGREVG
The test is described as follows: Luciferase reporter gene assay, response of olfactory receptor OR2C1 to odorous substance. The format is cell-based. The conditions noted are these: HEK293T cells expressing OR2C1, various concentrations, 3 hours stimulation; FIGS. 1 and 3.
From the text: (§4) Human olfactory receptor genes were obtained by PCR cloning with Human Genomic DNA: Female (Promega) on the basis of their sequence information registered in GenBank. Into pME18S vectors, the N-terminal 20 amino acid residues of bovine rhodopsin were integrated and the resulting human olfactory receptor genes were integrated respectively downstream thereof to obtain human olfactory receptor gene expression vectors. […]
as §2, with “substance. […]” for “substance.”
In general terms: A reporter such as luciferase makes a cellular process visible.

A further test concerns the target T3, OR2C1 (Homo sapiens, UniProt O95371).
T3 construct: N-terminal 20 amino acid residues of bovine rhodopsin (Rho tag); expressed in transfected cells; host or cells: HEK293T cells, pME18S expression vector, co-transfected with RTP1S vector and luciferase reporters
T3 sequence (O95371 1-312): T2 sequence (O95371 1-312)
The test is described as follows: Suppressive effect of offensive odor-suppressing materials on the response of OR2C1 (luciferase reporter gene assay). The format is cell-based. The conditions noted are these: mixed at various concentrations with 30 μM 1-octen-3-one; FIGS. 7 and 8.
From the text: as §4
as §2, with “substance. […]” for “substance.”

For another test, the target named is T4, olfactory receptor OR2W1 (Homo sapiens, UniProt Q9Y3N9).
T4 sequence (Q9Y3N9 1-320): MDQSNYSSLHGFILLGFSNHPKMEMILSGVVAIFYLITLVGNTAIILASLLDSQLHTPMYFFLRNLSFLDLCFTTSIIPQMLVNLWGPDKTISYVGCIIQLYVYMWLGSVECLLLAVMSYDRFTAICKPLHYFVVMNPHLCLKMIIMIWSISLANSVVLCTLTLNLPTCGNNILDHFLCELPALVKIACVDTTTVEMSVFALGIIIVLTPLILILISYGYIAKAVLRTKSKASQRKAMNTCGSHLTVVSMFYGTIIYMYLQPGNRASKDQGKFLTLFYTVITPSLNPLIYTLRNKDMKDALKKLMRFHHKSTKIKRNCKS
Conditions: background art; cited from earlier work.

For test [4] the following is noted: background art; cited from earlier work.

On to `C=CC(O)CC=CCC` (stereo not drawn) [1,5-octadien-3-ol], for which the “response in Mock test” value in test [1] is reported as “no response was observed”. Also, in test [2], the “response of OR4Q3 to the odorous substance (fold increase value)” value (shortened to “response of OR4Q3 … (fold increase value)”) was “respond to 1,5-octadien-3-ol in a concentration-dependent manner”.
Take `C=CC(=O)CC=CCC` [1,5-octadien-3-one]: in test [1], the “response in Mock test” value is listed as “no response was observed”. For the same molecule, the “response of OR2C1 to the odorous substance (fold increase value)” value in test [3] was “respond to 1,5-octadien-3-one in a concentration-dependent manner”. For the same molecule, the “response of OR4Q3 … (fold increase value)” value in test [2] was “respond to 1,5-octadien-3-one in a concentration-dependent manner”.
Consider `CCCC(O)CCC1C(C)CCCC1(C)C` (stereo not drawn) [1-(2,2,6-trimethylcyclohexyl)hexan-3-ol], for which, on OR2C1, the “suppressive effect on the response of OR2C1 to 1-octen-3-one (ratio of fold increase value, without material set to 100)” value was “reducing the response of OR2C1 to 1-octen-3-one in a concentration-dependent manner”.
Consider `C=CC(O)CCCCC` (stereo not drawn) [1-octen-3-ol], for which the “response in Mock test” value in test [1] is “no response was observed”. In addition, in test [2], the “response of OR4Q3 … (fold increase value)” value was “respond to 1-octen-3-ol in a concentration-dependent manner”.
As to `C=CC(=O)CCCCC` [1-octen-3-one], the “response in Mock test” value in test [1] is “no response was observed”. Moreover, the “response of OR2C1 to the odorous substance (fold increase value)” value in test [3] is “respond to 1-octen-3-one in a concentration-dependent manner”. In test [2], the “response of OR4Q3 … (fold increase value)” value is recorded as “respond to 1-octen-3-one in a concentration-dependent manner”.
For the molecule `CC(=CCC1CC=C(C)C1(C)C)CO` (stereo not drawn) [2-methyl-4-(2,2,3-trimethylcyclopent-3-enyl)but-2-en-1-ol], the “suppressive effect on the response of OR2C1 to 1-octen-3-one (ratio of fold increase value, without material set to 100)” value on OR2C1 is reported as “reducing the response of OR2C1 to 1-octen-3-one in a concentration-dependent manner”.
As for `CC(C)c1cccc(C(C)CC=O)c1` (stereo not drawn) [florhydral], the “inhibition of the activity of OR2W1” value at olfactory receptor OR2W1 is recorded as “inhibiting the activity of this OR2W1”. For the same molecule, the “suppression of offensive odor induced by hexanoic acid in sensory testing” value in test [4] was “suppress an offensive odor induced by hexanoic acid”.
`CCCCCC(=O)O` [hexanoic acid]: the “response of OR2W1 to the odorous substance” value at olfactory receptor OR2W1 is reported as “responds to hexanoic acid”.
